Patent publication US12246071B2, “Brain-penetrating ligand and drug carrier” (priority 2018, dated 2025)

Tests used:
SH-SY5Y cells [1] = test: Cholesterol leakage from U18666A-treated cells; type: cell-based, human; details: 1.0, 10.0 and 20.0 mM, 2 hours, 37° C., after U18666A 7.5 μM
Procedure: SH-SY5Y cells (1.0×10^5 cells), which are human neuroblasts, were seeded in a 24-well plate, incubated at 37° C. for 24 hours, then, washed with PBS, and a medium supplemented with U18666A (7.5 μM) was added, and it was incubated for an additional 24 hours. Then, washed with PBS, and 150 μL of a medium (HBSS, FBS (−)) containing HP-3-CyD (DS4.4) (1.0, 10.0 and 20.0 mM) or Lac-HP-β-CyD (DSL3.0) (1.0, 10.0 and 20.0 mM) was added. After incubating at 37° C. for 2 hours, the supernatant was collected and centrifuged (10,000). The cholesterol concentration and phospholipid concentration in the obtained supernatant were measured with cholesterol E-Test wako and phospholipid C-Test wako.

hCMEC/D3 cells = test: Uptake of HiLyte-labeled Lac-HP-β-CyD into brain capillary endothelial cells (confocal microscope); type: cell-based, human; details: 1 mM, 1 hour, 37° C.
Procedure: Lac-HP-β-CyD (DSL3.0) and the control HP-β-CyD […] were labeled with HiLyte fluorescent dye according to the manufacturer's manual. The following experiments were carried out using these.
Using hCMEC/D3 cells, which are human brain capillary endothelial cells, the uptake of Lac-HP-β-CyD into cells was confirmed. hCMEC/D3 cells were seeded at 1.0×10^4 cells/glass dish and incubated at 37° C. for 24 hours. Then, it was washed with PBS, and 150 μL of a medium containing HiLyte-HP-β-CyD (DS4.4, 1 mM) or HiLyte-Lac-HP-β-CyD (DSL3.0, 1 mM) was added, and incubated at 37° C. for 1 hour. After washing with PBS, it was fixed with 4% paraformaldehyde.

SH-SY5Y cells [2] = test: Uptake into SH-SY5Y cells after permeation of the hCMEC/D3 monolayer; type: cell-based, human; details: HiLyte-labeled, 1 mM on upper side, 60 minutes
Procedure: hCMEC/D3 cells were seeded in the upper component of a transwell at 2.0×10^5 cells/well, incubated at 37° C. for 5 days, then, the transepithelial electrical resistance (TEER) was measured. SH-SY5Y cells were seeded at 1.0×10^5 cells/well in a 6-well plate, which is a lower component, and incubated at 37° C. for 1 day. […] Over time (upper side 0, 60 minutes; lower side 0, 5, 15, 30, and 60 minutes), the medium was sampled, the fluorescence intensity was measured using I-control (M1000) (TECAN), and the permeation amount was measured. Similar to Example 4, the permeation coefficient Papp (cm/sec) was calculated as follows.

SH-SY5Y cells [3] = test: Intracellular accumulation of amyloid β; type: cell-based, human; details: 1 mM, 24 hours, after U18666A 7.5 μM and HiLyte488-Aβ 250 nM
Procedure: Using SH-SY5Y cells, the amyloid β accumulation in the cells was measured. SH-SY5Y cells were seeded at 1.0×10^4 cells/glass dish and incubated at 37° C. for 24 hours. Then, washed with PBS, 150 μL of a medium containing U18666A (7.5 μM) and HiLyte488-Aβ (purchased from AnaSpec) (250 nM) was added and incubated at 37° C. for 24 hours. After washing with PBS, 200 μL of a medium containing HP-β-CyD (DS4.4.1 mM) or Lac-HP-β-CyD (DSL3.0, 1 mM) was added, and the mixture was incubated at 37° C. for 24 hours. After washing with PBS, 200 μL of a medium supplemented with Lysostacker (registered trademark) (final concentration: 100 nM) was added. After incubating for 30 minutes, it was fixed with 4% paraformaldehyde and the FIlipin solution was added.

[4] = Organ distribution of fluorescently labeled Lac-HP-β-CyD after intravenous injection (IVIS); type: in vivo, BALB/c mouse; details: HiLyte-labeled, 10 mg/kg intravenous, BALB/c mice, 10 minutes
Procedure: BALB/c mice (8 weeks old, male, 20 g) were intravenously injected with HiLyte-HP-β-CyD (DS4.4) or HiLyte-Lac-HP-β-CyD (DSL3.0) at a dose of 10 mg/kg. After 10 minutes, the mice were euthanized, perfused with PBS and each organ was collected. Each organ was observed by IVIS.

lactose-modified hydroxypropyl-β-cyclodextrin [Lac-HP-β-CyD]
cholesterol leakage into supernatant (SH-SY5Y cells [1]): less cholesterol leakage than HP-β-CyD
uptake into cells (hCMEC/D3 cells): significantly taken up into the cells as compared with HP-β-CyD
uptake into SH-SY5Y cells after BBB permeation (SH-SY5Y cells [2]): significantly taken up into SH-SY5Y cells after BBB permeation as compared with HP-β-CyD
Aβ clearance / intracellular amyloid β accumulation (SH-SY5Y cells [3]): normalized the Aβ clearance by reducing the amount of cholesterol in cells
penetration to the brain (fluorescence intensity of organ) [4]: significantly penetrated to the brain as compared with HP-β-CyD
